{"source": "patent US9561215B2", "about": "“BAX-activating cancer therapeutics” (The University of Louisville Research Foundation Inc., priority 2014, dated 2017)", "key": {"[1]": {"system": "anti-apoptotic Bcl-2 proteins, including Bcl-2, Bcl-xL, and Bcl-w", "settings": "cited from earlier work"}, "[2]": {"system": "Bak^−/−Bax^−/− MEF cells stably re-expressing Bax, Bak, or the empty vector", "assay": "Cell death by propidium iodide exclusion in MEF cells re-expressing Bax or Bak", "format": "cell-based", "settings": "for rank by activity to induce Bax-dependent apoptosis: rank among the six Bax activator compounds", "procedure": "(§1) Cell lines: Bak^−/−Bax^−/− murine embryonic fibroblast (MEF) cells expressing the empty vector, Bak or Bax were cultured as described previously. Human non-small cell lung carcinoma A549 and human pancreatic carcinoma Panc-1 were purchased from ATCC (Manassas, Va.). Untransformed and transformed MEF cells were kindly provided by Dr. Wei-Xing Zong. Bax^+/− and Bax^−/− HCT116 cells were obtained from Drs. Bert Vogelstein and Kenneth Kinzler. All cells were cultured at 37° C. in a 5% CO2 incubator as described previously (42). To generate A549 cells with reduced Bax expression or vector control, cells were first infected by Bax shRNA lentiviral particles or control shRNA lentiviral particles (Santa Cruz). Stable cells were obtained by culturing cells in the medium with 10 μg/ml puromycin.\n(§2) Cell death analysis and Chou-Talalay synergism assay: Cell viability was measured by propidium iodide exclusion using flow cytometry (FACSCalibur, Becton Dickinson) as described previously. The synergistic effect between compound 106 and carboplatin or ABT-737 on cell viability was determined by Chou-Talalay median dose effect assay. IC50 of compound 106, carboplatin, and ABT-7373 on a tumor cell line was first determined. Different combinations of drugs at a fixed ratio higher or lower than their IC50 values were added to cells. After incubation for the indicated time, cell viability was examined and Fa was calculated as the ratio between the cell death levels of drug-treated cells and those of untreated control cells. Combination index (CI) was determined by the CompuSyn software (Biosoft, Cambridge, UK).\nThe inventors tested candidate agents by first determining whether cytotoxicity was dependent on Bax but not on Bak. Bax^−/−Bak^−/− murine embryonic fibroblast (MEF) cell lines stably re-expressing only Bax or Bak were established (FIG. 3)."}, "[3]": {"system": "A549 cells with Bax shRNA or control shRNA vector", "assay": "Cell death in A549 cells with reduced Bax expression or control shRNA", "format": "cell-based, human", "settings": "48 hour incubation", "procedure": "as §1\nas §2, with “The synergistic effect between compound 106 and carboplatin or ABT-737 on cell viability was determined by Chou-Talalay median dose effect assay.” left out, “Different combinations of drugs at a fixed ratio higher or lower than their IC50 values were added to cells.” left out, “UK). […]” for “UK).”"}, "[4]": {"system": "Bax^+/− and Bax^−/− HCT116 cells", "assay": "Cell death in HCT116 cells with or without Bax expression", "format": "cell-based, human", "settings": "48 hour incubation", "procedure": "as §1\nas §2, with “The synergistic effect between compound 106 and carboplatin or ABT-737 on cell viability was determined by Chou-Talalay median dose effect assay.” left out, “Different combinations of drugs at a fixed ratio higher or lower than their IC50 values were added to cells.” left out, “UK). […]” for “UK).”"}, "A549 cells": {"system": "A549 cells", "assay": "Chou-Talalay synergism assay in A549 cells", "format": "cell-based, human", "settings": "compound 106 (80-240 μM) with carboplatin (80-240 μM), constant ratio, 48 hours", "procedure": "as §2, with “The synergistic effect between compound 106 and carboplatin or ABT-737 on cell viability was determined by Chou-Talalay median dose effect assay.” left out, “Different combinations of drugs at a fixed ratio higher or lower than their IC50 values were added to cells.” left out\n(§3) To explore the potential of compound 106 functioning in combination chemotherapy, the inventors investigated whether compound 106 sensitizes tumor cells to die following simultaneous treatment with a chemotherapeutic drug. Carboplatin is currently used to treat non-small-cell lung cancer and human pancreatic cancer. To investigate whether the cytotoxic effects of compound 106 and carboplatin on human tumor cells were synergistic, the inventors carried out median-effect analysis using the Chou-Talalay method. After 48 hours of treatment, the cell death levels of A549 and PANC-1 cells treated with various concentrations of compound 106 and carboplatin at a constant dose ratio were measured, and the combination index (CI) values were determined."}, "PANC-1 cells": {"system": "PANC-1 cells", "assay": "Chou-Talalay synergism assay in PANC-1 cells", "format": "cell-based, human", "settings": "compound 106 (3.3-240 μM) with carboplatin (3.3-240 μM), constant ratio, 48 hours", "procedure": "as §2, with “The synergistic effect between compound 106 and carboplatin or ABT-737 on cell viability was determined by Chou-Talalay median dose effect assay.” left out, “Different combinations of drugs at a fixed ratio higher or lower than their IC50 values were added to cells.” left out\nas §3"}, "Bax": {"molecular_target": "Bax (Homo sapiens, UniProt Q07812)", "sequence (Q07812 whole entry, species assumed)": "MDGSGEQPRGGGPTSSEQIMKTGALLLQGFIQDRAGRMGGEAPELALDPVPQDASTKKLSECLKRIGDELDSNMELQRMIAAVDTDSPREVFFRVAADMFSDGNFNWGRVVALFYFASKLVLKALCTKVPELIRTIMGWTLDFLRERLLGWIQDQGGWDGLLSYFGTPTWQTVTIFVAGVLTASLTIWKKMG", "settings": "non-canonical BH3 interaction site; cited from earlier work"}}, "data": [{"compound": "CN(C)CC[C@H](CSc1ccccc1)Nc1ccc(S(=O)(=O)NC(=O)c2ccc(N3CCN(Cc4ccccc4-c4ccc(Cl)cc4)CC3)cc2)cc1[N+](=O)[O-]", "note": "[ABT-737]", "values": [{"measurement": "binding affinity", "setting": "[1]", "value": "bind with high affinity"}]}, {"compound": "CC(C)CN1CC(OCc2cccnc2)CN(C(=O)Cc2ccc3c(c2)OCO3)CC1=O", "note": "(stereo not drawn) [ZINC14531256, 4-(1,3-benzodioxol-5-ylacetyl)-1-isobutyl-6-(3-pyridinylmethoxy)-1,4-diazepan-2-one]", "values": [{"measurement": "rank by activity to induce Bax-dependent apoptosis", "setting": "[2]", "value": 6}]}, {"compound": "COc1ccccc1N1CCN(Cn2nc(-c3ccc(F)cc3)n(CC3CCCO3)c2=S)CC1", "note": "(stereo not drawn) [ZINC16076241, 5-(4-fluorophenyl)-2-[[4-(2-methoxyphenyl)piperazin-1-yl]methyl]-4-(oxolan-2-ylmethyl)-1,2,4-triazole-3-thione]", "values": [{"measurement": "rank by activity to induce Bax-dependent apoptosis", "setting": "[2]", "value": 5}]}, {"compound": "CCn1nc(C)c(CN2CCCC(N3CCN(c4ccc(OC)cc4)CC3)C2)c1C", "note": "(stereo not drawn) [ZINC20110124, 1-{1-[(1-ethyl-3,5-dimethyl-1H-pyrazol-4-yl)methyl]-3-piperidinyl}-4-(4-methoxyphenyl)piperazine]", "values": [{"measurement": "rank by activity to induce Bax-dependent apoptosis", "setting": "[2]", "value": 2}]}, {"compound": "COc1ccccc1-c1nc2cc(N)cc(C(=O)NC3CCCN(Cc4ccccc4)C3)c2n1C", "note": "(stereo not drawn) [ZINC 12150973, 5-amino-N-(1-benzyl-3-piperidinyl)-2-(2-methoxyphenyl)-1-methyl-1H-benzimidazole-7-carboxamide]", "values": [{"measurement": "rank by activity to induce Bax-dependent apoptosis", "setting": "[2]", "value": 4}]}, {"compound": "CSc1ccc(C2N=C3NCN(Cc4cccnc4)CN3c3nc4ccccc4n32)cc1", "note": "(stereo not drawn) [ZINC 13638227, 6-(4-(methylthio)phenyl)-2-(pyridin-3-ylmethyl)-2,3,4,6-tetrahydro-1H-benzo[4,5]imidazo[1,2-a][1,3,5]triazino[1,2-c][1,3,5]triazine]", "values": [{"measurement": "rank by activity to induce Bax-dependent apoptosis", "setting": "[2]", "value": 3}]}, {"compound": "N.N.O=C([O-])C1(C(=O)[O-])CCC1.[Pt+2]", "note": "[carboplatin, cis-Diammine (1,1-cyclobutanedicarboxylato)platinum(II)]", "values": [{"measurement": "cell death, reduced Bax expression versus control shRNA", "setting": "[3]", "value": "Decrease in Bax expression did not affect killing activities"}, {"measurement": "cell death, Bax expressing versus Bax lacking HCT116 cells", "setting": "[4]", "value": "Lack of Bax expression in HCT116 cells did not affect killing activities"}]}, {"compound": "COc1cccc(Cn2nc(C(=O)N3CCCC(O)C3)c3c2CCN(Cc2ccc(C)c(C)c2)C3)c1", "note": "(stereo not drawn) [compound 106, 1-{[5-(3,4-dimethylbenzyl)-1-(3-methoxybenzyl)-4,5,6,7-tetrahydro-1H-pyrazolo[4,3-c]pyridin-3-yl]carbonyl}-3-piperidinol]", "values": [{"measurement": "cytotoxicity dependent on Bax but not on Bak (test of the 46 candidate agents)", "setting": "[2]; MEF cell lines re-expressing only Bax or Bak, and Bax−/−Bak−/− MEFs", "value": "exhibited the highest Bax- and dose-dependent cytotoxicity"}, {"measurement": "rank by activity to induce Bax-dependent apoptosis", "setting": "[2]", "value": 1}, {"measurement": "combination index (CI)", "setting": "A549 cells", "value": "smaller than 1"}, {"measurement": "combination index (CI)", "setting": "PANC-1 cells", "value": "smaller than 1"}]}, {"compound": "CC[C@]1(O)C[C@H]2CN(CCc3c([nH]c4ccccc34)[C@@](C(=O)OC)(c3cc4c(cc3OC)N(C=O)[C@H]3[C@@](O)(C(=O)OC)[C@H](OC(C)=O)[C@]5(CC)C=CCN6CC[C@]43[C@@H]65)C2)C1", "note": "[vincristine]", "values": [{"measurement": "cell death, reduced Bax expression versus control shRNA", "setting": "[3]", "value": "Decrease in Bax expression did not affect killing activities"}, {"measurement": "cell death, Bax expressing versus Bax lacking HCT116 cells", "setting": "[4]", "value": "Lack of Bax expression in HCT116 cells did not affect killing activities"}]}, {"compound": "BAM7", "values": [{"measurement": "Bax binding and activation", "setting": "Bax", "value": "directly binds Bax and activates Bax by triggering Bax oligomerization"}]}]}
